Converted amounts (≈) assume the structure as drawn. Read-outs that look alike come from different tables or passages of the source.
Legend:
[1] = tested on: mouse embryonic fibroblast (NIH/3 T3) cells; experiment: Cytotoxicity assay on normal cells (CCK-8); format: cell-based; conditions: 24 h
Method: (§1) Cultures of Human foreskin fibroblast (HFF; HFF-1 ATCC® SCRC-1041™), Madin–Darby bovine kidney (MDBK; ECACC) and mouse embryonic fibroblast (NIH/3 T3; ATCC® CRL-1658™) cells were retrieved from − 80 °C stock and cultured continuously at 37 °C under atmosphere 5% CO2 in our laboratory. The NIH/3 T3 and HFFs cells were preserved in Dulbecco Modified Eagle’s Medium (DMEM; Gibco, Grand Island, NY, USA), while MDBK cell line grown in Minimum Essential Medium Eagle (MEM; Gibco). All mediums were treated with 2 mM glutamine, 0.5% penicillin/streptomycin (Gibco) and 10% inactivated fetal bovine serum. Every 72 to 96 h, the medium was replaced, and once 80% confluence was reached, the cell collection was performed by sub-culture protocol. To confirm the absence of mycoplasma contamination, 4, 6-diamidino-2-phenylindole dihydrochloride (Sigma-Aldrich, USA) stain was used.
(§2) The cell viability test was conducted in a 96-well plate as described elsewhere. Briefly, an aliquot of (100 μL) cells was implanted at 5 × 10^4 cells/mL in DMEM or MEM with fetal bovine serum and incubated overnight under atmosphere 5% CO2 at 37 °C for attachment. Using two-fold dilutions, aliquots (10 μL) of herbal extracts and reference drugs were added in triplicate per well and further incubated for 24 h. The positive control wells containing cells mixed with the medium in 0.4% DMSO, whereas the negative control wells containing culture medium only. After a 24-h incubation, Cell Counting Kits-8 (CCK-8) (10 μL) was added per well and then plate incubation was conducted for an additional 3 h and a microplate reader was used to assess the absorbance at 450 nm.

[2] = tested on: human foreskin fibroblast (HFF) cells; experiment: Cytotoxicity assay on normal cells (CCK-8); format: cell-based; conditions: HFF cell viability, 24 h
Method: as §1, §2

[3] = tested on: Madin–Darby bovine kidney (MDBK) cells; experiment: Cytotoxicity assay on normal cells (CCK-8); format: cell-based; conditions: MDBK cell viability, 24 h
Method: as §1, §2

B. microti = experiment: Chemotherapeutic effects against B. microti in infected BALB/c mice; format: in vivo
Method: For the in vitro experiments, a German strain B. divergens, Argentine strain B. bigemina, Texas strain B. bovis, were cultivated in cattle RBCs, while USDA strains of equine piroplasm parasites (T. equi and B. caballi) were maintained in horse RBCs. The parasite incubation occurred at 37 °C in a humidifying chamber under 90% N2, 5% O2, and 5% CO2 atmosphere using a microaerophilic stationary-phase culture. For conducting the in vivo study, female BALB/c mice, aged six-week, obtained from CLEA Japan were infected with B. microti Munich strain [1].
Twenty-five mice were placed in an environment free from pathogens with 22 °C temperature and adjusted humidity and under 12 h light and 12 h darkness and randomly distributed into five groups. The mice in groups 2 through 5 were obtained 500 μL of 1 × 10^7B. microti iRBC by intraperitoneal (i.p.) injection. Group 1 served as a negative control and was neither infected nor treated. At 1% parasitemia, drug treatment of the mice by i.p. started, continuing for 5 days. Group 2 act as a positive control group and received 95% DDW and 5% DMSO. […] The drug administration lasted for 5 days starting from the fourth day to the eighth day post-infection (p.i.), and parasitemia was checked by preparing Giemsa-stained smears every 2 days in about 2000 RBCs by microscopy until day 32 post-infection (p.i.). Furthermore, the hematological parameters, including hemoglobin (HGB), RBCs, and HCT, were determined by an automatic hematology analyzer (Celltac α MEK-6450, Nihon Kohden, Japan) every 4 days. After finishing the in vivo experiment, an anesthetic system using an inhaler containing isoflurane was used to euthanize all mice by placing them in the induction chamber, adjusting the oxygen flowmeter to 0.8 to 1.5 L/min and vaporizer to 3 to 5%. […]

B. bigemina = experiment: Babesia fluorescent (SYBR Green I) in vitro growth inhibition assay; format: cell-based; conditions: for IC50: B. bigemina, in vitro, 4 days
Description: (§3) For the in vitro experiments, a German strain B. divergens, Argentine strain B. bigemina, Texas strain B. bovis, were cultivated in cattle RBCs, while USDA strains of equine piroplasm parasites (T. equi and B. caballi) were maintained in horse RBCs. […] For conducting the in vivo study, female BALB/c mice, aged six-week, obtained from CLEA Japan were infected with B. microti Munich strain [1]. […] GIT medium replenished with 40% horse serum was used as a growth medium for B. caballi parasite culture. To ensure free-bacterial contamination, all medium was supplemented with amphotericin B (0.15 μg/mL) (Sigma-Aldrich, USA), streptomycin (60 U/mL) and penicillin G (60 U/mL). The Babesia fluorescent assay was carried out on the in vitro culture as previously reported elsewhere. […] On day four of culture, an aliquot (100 μL) of lysis buffer was added to 0.2 μL/mL SG1 per well; subsequently, it was covered with aluminum foil to prevent exposure to light. After a 6-h incubation at 37 °C, fluorescence readings were acquired on a spectrofluorimeter (Fluoroskan Ascent, Thermo Fisher Scientific, USA) with a 485 nm excitation wavelength and a 518 nm emission wavelength. The IC50 values of the two extracts, DMA and ATV were established from the in vitro growth inhibition by nonlinear regression curve fit on a GraphPad Prism (GraphPad Software Inc., USA). While for in vivo, the significant variations (p < 0.05) among group mean values on parasitemia and one-way ANOVA Tukey's test in GraphPad Prism version 5.0 was used to analyze hematology profiles in mice infected with B. microti.

B. divergens = experiment: as above; format: cell-based; conditions: for IC50: B. divergens, in vitro, 4 days
Description: as §3

B. bovis = experiment: as above; format: cell-based; conditions: for IC50: B. bovis, in vitro, 4 days
Description: as §3

B. caballi = experiment: as above; format: cell-based; conditions: for IC50: B. caballi, in vitro, 4 days
Description: as §3

T. equi = experiment: as above; format: cell-based; conditions: for IC50: T. equi, in vitro, 4 days
Description: as §3

Leishmania = tested on: Leishmania; set-up: method as in PMID 28968213; conditions: cited from earlier work

## CC(=O)NCC(=O)O.CC(=O)NCC(=O)O.N=C(N)c1ccc(N=NNc2ccc(C(=N)N)cc2)cc1 [DMA, diminazene aceturate]
[1]; NIH/3 T3 cell viability
  EC50 NIH/3 T3: ˃ 100 μg/mL
[2]
  EC50 HFF: ˃ 100 μg/mL
[3]
  EC50 MDBK: ˃ 100 μg/mL
B. microti; 25 mg kg−1, eighth day p.i., mice
  Restriction of the parasitemia level: 93.2%
B. microti; 25 mg kg−1 intraperitoneally for 5 days, 8 days p.i., BALB/c mice
  Level of parasitemia: 3.9%
B. microti; B. microti-infected mice
  Anemia development in mice: prohibited anemia development
B. bigemina
  IC50: 0.11 ± 0.01 µg/mL
B. divergens
  IC50: 0.35 ± 0.03 µg/mL
B. bovis
  IC50: 0.25 ± 0.02 µg/mL
B. caballi
  IC50: 0.003 ± 0.001 µg/mL
T. equi
  IC50: 0.37 ± 0.01 µg/mL

## O=C1C(O)=C([C@H]2CC[C@H](c3ccc(Cl)cc3)CC2)C(=O)c2ccccc21 [ATV, atovaquone]
[1]; Mus musculus, NIH3T3, NIH/3 T3 cell viability
  EC50: > 100 µg/mL
[2]; Homo sapiens
  EC50: > 100 µg/mL
[3]; Bos taurus
  EC50: > 100 µg/mL
B. bigemina; 96 h, read-out: IC50
  IC50: 0.26 ± 0.03 µg/mL (≈ 0.709 µM)
B. bigemina; EC50 HFF / IC50 B. bigemina
  Selective indices HFF: ˃ 384.6
B. bigemina; EC50 MDBK / IC50 B. bigemina
  Selective indices MDBK: ˃ 384.6
B. bigemina; EC50 NIH/3 T3 / IC50 B. bigemina
  Selective indices NIH/3 T3: ˃ 384.6
B. divergens; 96 h, read-out: IC50
  IC50: 0.014 ± 0.002 µg/mL (≈ 0.0382 µM)
B. divergens; EC50 HFF / IC50 B. divergens
  Selective indices HFF: ˃ 7142.9
B. divergens; EC50 MDBK / IC50 B. divergens
  Selective indices MDBK: ˃ 7142.9
B. divergens; EC50 NIH/3 T3 / IC50 B. divergens
  Selective indices NIH/3 T3: ˃ 7142.9
B. bovis; Bos taurus, 96 h, read-out: IC50
  IC50: 0.015 ± 0.001 µg/mL (≈ 0.0409 µM)
B. bovis; EC50 HFF / IC50 B. bovis
  Selective indices HFF: ˃ 6666.7
B. bovis; EC50 MDBK / IC50 B. bovis
  Selective indices MDBK: ˃ 6666.7
B. bovis; EC50 NIH/3 T3 / IC50 B. bovis
  Selective indices NIH/3 T3: ˃ 6666.7
B. caballi; Babesia caballi, 96 h, read-out: IC50
  IC50: 0.038 ± 0.01 µg/mL (≈ 0.104 µM)
B. caballi; EC50 HFF / IC50 B. caballi
  Selective indices HFF: ˃ 2631.6
B. caballi; EC50 MDBK / IC50 B. caballi
  Selective indices MDBK: ˃ 2631.6
B. caballi; EC50 NIH/3 T3 / IC50 B. caballi
  Selective indices NIH/3 T3: ˃ 2631.6
T. equi; 96 h, read-out: IC50
  IC50: 0.035 ± 0.01 µg/mL (≈ 0.0954 µM)
T. equi; EC50 HFF / IC50 T. equi
  Selective indices HFF: ˃ 2857.1
T. equi; EC50 MDBK / IC50 T. equi
  Selective indices MDBK: ˃ 2857.1
T. equi; EC50 NIH/3 T3 / IC50 T. equi
  Selective indices NIH/3 T3: ˃ 2857.1

## C=CCc1ccc(O)c(OC)c1 [eugenol]
Leishmania
  IC50 antileishmanial effect: 1.43 µg/mL (≈ 8.68 µM)

## O=C/C=C/c1ccccc1 [cinnamaldehyde]
Leishmania
  IC50 antileishmanial effect: 0.681 µg/mL (≈ 5.15 µM)

— paper PMC7077018, “Gas chromatography-mass spectrometry analysis, phytochemical screening and antiprotozoal effects of the methanolic Viola tricolor and acetonic Laurus nobilis extracts” (BMC Complementary Medicine and Therapies, 2020)
